The values below come from the Kinase Knowledgebase extract (Sharma et al. 2016).

Molecules are shown by their SMILES. Some results are limits rather than exact numbers.

In the first assay the target is ERBB2;PIK3CA (human) (UniProt P42336). Kind of assay: Inhibition of ERBB2 and PIK3CA Kinase Activity in MDA361 Cells. To be noted: mda-361.
ERBB2;PIK3CA (human), sequence (P42336 whole entry, looked up): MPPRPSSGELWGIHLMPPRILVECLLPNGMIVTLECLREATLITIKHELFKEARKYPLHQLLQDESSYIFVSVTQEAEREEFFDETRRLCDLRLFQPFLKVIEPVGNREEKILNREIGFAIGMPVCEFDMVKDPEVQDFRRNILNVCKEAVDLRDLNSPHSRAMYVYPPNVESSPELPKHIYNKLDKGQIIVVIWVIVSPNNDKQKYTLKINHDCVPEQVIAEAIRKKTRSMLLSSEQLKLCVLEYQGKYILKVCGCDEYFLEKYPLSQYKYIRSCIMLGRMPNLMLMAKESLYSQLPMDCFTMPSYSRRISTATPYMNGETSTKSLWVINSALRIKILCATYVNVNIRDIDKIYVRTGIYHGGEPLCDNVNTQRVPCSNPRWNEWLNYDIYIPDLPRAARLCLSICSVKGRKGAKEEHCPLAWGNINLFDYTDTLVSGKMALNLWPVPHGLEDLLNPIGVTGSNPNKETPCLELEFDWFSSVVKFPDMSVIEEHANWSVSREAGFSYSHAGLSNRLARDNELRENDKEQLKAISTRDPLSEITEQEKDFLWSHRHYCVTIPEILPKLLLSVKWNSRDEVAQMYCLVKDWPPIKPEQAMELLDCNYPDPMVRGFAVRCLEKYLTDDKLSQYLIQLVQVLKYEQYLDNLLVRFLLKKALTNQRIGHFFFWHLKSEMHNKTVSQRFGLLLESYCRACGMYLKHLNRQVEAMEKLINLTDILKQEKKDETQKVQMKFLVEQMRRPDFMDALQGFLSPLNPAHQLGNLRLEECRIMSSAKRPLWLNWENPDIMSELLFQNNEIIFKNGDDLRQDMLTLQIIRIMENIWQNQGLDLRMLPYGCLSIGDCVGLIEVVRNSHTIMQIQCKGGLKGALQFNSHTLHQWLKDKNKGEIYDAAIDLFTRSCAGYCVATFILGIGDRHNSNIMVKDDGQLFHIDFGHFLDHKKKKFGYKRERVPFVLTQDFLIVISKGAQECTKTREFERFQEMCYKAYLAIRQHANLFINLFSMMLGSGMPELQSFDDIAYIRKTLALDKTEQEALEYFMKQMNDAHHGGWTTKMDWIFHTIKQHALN
As for `CN(C)CCN(C)C(=O)c1ccc(NC(=O)Nc2ccc(-c3nc(N4CCOCC4)c4ccn(CC(F)(F)F)c4n3)cc2)cc1`, the concentration for half-maximal inhibition (IC50) is less than 3 nM.

The next assay deals with PIK3CA (human) (UniProt P42336). The experiment in a line: Inhibition of PIK3CA Kinase Activity (Fluorescence Polarization Format Assay).
PIK3CA (human), sequence (P42336 whole entry, looked up): as above
Settings: not given
Regarding `Cc1cccc(-c2nc(N3CCOCC3)c3[nH]ccc3n2)c1`, the IC50 turned out to be 1510 nM.

`O=C(Nc1ccncc1)Nc1ccc(-c2nc(N3CCOCC3)c3ccn(CCN4CCCC4)c3n2)cc1`: the half-inhibitory concentration (IC50) turned out to be 30 nM.

Regarding `CN(C)CCn1ccc2c(N3CCOCC3)nc(-c3cccc(O)c3)nc21`, the IC50 is 76 nM.

Regarding `Oc1cccc(-c2nc(N3CCOCC3)c3cc[nH]c3n2)c1`, the IC50 worked out at 43 nM.

`CCNC(=O)Nc1ccc(-c2nc(N3CCOCC3)c3ccn(CCN(C)C)c3n2)cc1` had an IC50 of 226 nM.

One may read the IC50 as the concentration that gives 50% inhibition. High values mean weaker potency in that assay, low ones greater potency in that assay.
